What was measured:
Assay in all cases: relative viability (nuclei count vs DMSO), 5 days (fraction); higher = more cells survive
[1] = compound: CC1=NN=C(O1)C2=NN=C(C=C2)N3CCC(CC3)OC4=C(C=CC(=C4)F)Cl + Cc1nc(Nc2ncc(C(=O)Nc3c(C)cccc3Cl)s2)cc(N2CCN(CCO)CC2)n1 [Dasatinib] (partner 0.075 µM)
Summary of the method: (§1)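 One day after seeding in 1536-well plates, lung cancer cell lines were dosed by pin tool. Dosing was either single-drug or a fixed anchor-drug dose plus five library-drug doses (not always all listed) in √10 steps. After 5 days, nuclei were stained in one fix-and-stain step and counted on 4× images, and relative viability is the nuclei count of treated wells over that of vehicle wells, given as the median of duplicate plates.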

[2] = compound: CC(C)C[C@@H](C(=O)N[C@H](C(=O)OC1CCCC1)c1ccccc1)[C@H](O)C(=O)NO [Tosedostat] + Nc1ncn([C@H]2C[C@H](O)[C@@H](CO)O2)c(=O)n1 [Decitabine] (partner 2 µM)
Summary of the method: as §1

[3] = compound: CC1=NN=C(O1)C2=NN=C(C=C2)N3CCC(CC3)OC4=C(C=CC(=C4)F)Cl + CCNC(=O)c1noc(-c2cc(C(C)C)c(O)cc2O)c1-c1ccc(CN2CCOCC2)cc1 [Luminespib] (partner 0.01 µM)
Summary of the method: as §1

[4] = compound: CC(C)C[C@@H](C(=O)N[C@H](C(=O)OC1CCCC1)c1ccccc1)[C@H](O)C(=O)NO [Tosedostat] + CC(C)C[C@H](NC(=O)[C@H](Cc1ccccc1)NC(=O)c1cnccn1)B(O)O [Bortezomib] (partner 0.002 µM)
Summary of the method: as §1

With NCI-H1993 the relative viability ([1]; first compound 0.253 µM) was 0.537, the relative viability ([1]; first compound 0.8 µM) was 0.564 and the relative viability ([1]; first compound 2.53 µM) was 0.768. It also gave a relative viability ([1]; first compound 8 µM) of 0.549, a relative viability ([2]; first compound 0.02 µM) of 0.487 and a relative viability ([2]; first compound 0.06325 µM) of 0.673. It also gave a relative viability ([2]; first compound 0.2 µM) of 0.576, a relative viability ([2]; first compound 0.6325 µM) of 0.511 and a relative viability ([2]; first compound 2 µM) of 0.525. For the same cell line, the relative viability ([3]; first compound 0.253 µM) was 0.636, the relative viability ([3]; first compound 0.8 µM) was 0.829 and the relative viability ([3]; first compound 2.53 µM) was 0.74. It also gave a relative viability ([3]; first compound 8 µM) of 0.725, a relative viability ([4]; first compound 0.02 µM) of 1.02 and a relative viability ([4]; first compound 0.06325 µM) of 1.22. The relative viability ([4]; first compound 0.2 µM) was 0.852, the relative viability ([4]; first compound 0.6325 µM) was 0.872 and the relative viability ([4]; first compound 2 µM) was 0.642.
NCI-H2009 showed a relative viability ([1]; first compound 0.253 µM) of 0.309, a relative viability ([1]; first compound 0.8 µM) of 0.289 and a relative viability ([1]; first compound 2.53 µM) of 0.307. The relative viability ([1]; first compound 8 µM) was 0.327, the relative viability ([2]; first compound 0.02 µM) was 0.379 and the relative viability ([2]; first compound 0.06325 µM) was 0.377. For the same cell line, the relative viability ([2]; first compound 0.2 µM) was 0.404, the relative viability ([2]; first compound 0.6325 µM) was 0.433 and the relative viability ([2]; first compound 2 µM) was 0.329. The relative viability ([3]; first compound 0.253 µM) was 0.596, the relative viability ([3]; first compound 0.8 µM) was 0.565 and the relative viability ([3]; first compound 2.53 µM) was 0.539. For the same cell line, the relative viability ([3]; first compound 8 µM) was 0.523, the relative viability ([4]; first compound 0.02 µM) was 1.3 and the relative viability ([4]; first compound 0.06325 µM) was 1.02. It also gave a relative viability ([4]; first compound 0.2 µM) of 0.971, a relative viability ([4]; first compound 0.6325 µM) of 0.926 and a relative viability ([4]; first compound 2 µM) of 0.728.
For NCI-H2023, the relative viability ([1]; first compound 0.253 µM) was 0.429, the relative viability ([1]; first compound 0.8 µM) was 0.442 and the relative viability ([1]; first compound 2.53 µM) was 0.476. It also gave a relative viability ([1]; first compound 8 µM) of 0.402, a relative viability ([2]; first compound 0.02 µM) of 0.23 and a relative viability ([2]; first compound 0.06325 µM) of 0.202. For the same cell line, the relative viability ([2]; first compound 0.2 µM) was 0.223, the relative viability ([2]; first compound 0.6325 µM) was 0.167 and the relative viability ([2]; first compound 2 µM) was 0.183. It also gave a relative viability ([3]; first compound 0.253 µM) of 0.376, a relative viability ([3]; first compound 0.8 µM) of 0.389 and a relative viability ([3]; first compound 2.53 µM) of 0.336. For the same cell line, the relative viability ([3]; first compound 8 µM) was 0.253, the relative viability ([4]; first compound 0.02 µM) was 0.961 and the relative viability ([4]; first compound 0.06325 µM) was 0.965. It also gave a relative viability ([4]; first compound 0.2 µM) of 0.888, a relative viability ([4]; first compound 0.6325 µM) of 0.649 and a relative viability ([4]; first compound 2 µM) of 0.817.
With NCI-H2085 the relative viability ([1]; first compound 0.253 µM) was 0.303, the relative viability ([1]; first compound 0.8 µM) was 0.234 and the relative viability ([1]; first compound 2.53 µM) was 0.255. For the same cell line, the relative viability ([1]; first compound 8 µM) was 0.227, the relative viability ([2]; first compound 0.06325 µM) was 0.548 and the relative viability ([2]; first compound 0.2 µM) was 0.495. For the same cell line, the relative viability ([2]; first compound 0.6325 µM) was 0.503, the relative viability ([2]; first compound 2 µM) was 0.43 and the relative viability ([3]; first compound 0.253 µM) was 0.499. It also gave a relative viability ([3]; first compound 2.53 µM) of 0.339, a relative viability ([3]; first compound 8 µM) of 0.216 and a relative viability ([4]; first compound 0.02 µM) of 1.22. It also gave a relative viability ([4]; first compound 0.06325 µM) of 1.14, a relative viability ([4]; first compound 0.2 µM) of 1.07 and a relative viability ([4]; first compound 0.6325 µM) of 1.03. It also gave a relative viability ([4]; first compound 2 µM) of 0.977.
With NCI-H2087 the relative viability ([1]; first compound 0.253 µM) was 0.597, the relative viability ([1]; first compound 0.8 µM) was 0.458 and the relative viability ([1]; first compound 2.53 µM) was 0.581. The relative viability ([1]; first compound 8 µM) was 0.515, the relative viability ([2]; first compound 0.02 µM) was 0.37 and the relative viability ([2]; first compound 0.06325 µM) was 0.23. The relative viability ([2]; first compound 0.2 µM) was 0.24, the relative viability ([2]; first compound 0.6325 µM) was 0.224 and the relative viability ([2]; first compound 2 µM) was 0.225. The relative viability ([3]; first compound 0.253 µM) was 0.17, the relative viability ([3]; first compound 0.8 µM) was 0.144 and the relative viability ([3]; first compound 2.53 µM) was 0.151. For the same cell line, the relative viability ([3]; first compound 8 µM) was 0.164, the relative viability ([4]; first compound 0.02 µM) was 0.902 and the relative viability ([4]; first compound 0.06325 µM) was 0.795. It also gave a relative viability ([4]; first compound 0.2 µM) of 0.802, a relative viability ([4]; first compound 0.6325 µM) of 0.703 and a relative viability ([4]; first compound 2 µM) of 0.688.
NCI-H2126 showed a relative viability ([1]; first compound 0.253 µM) of 0.526, a relative viability ([1]; first compound 0.8 µM) of 0.635 and a relative viability ([1]; first compound 2.53 µM) of 0.616. The relative viability ([1]; first compound 8 µM) was 0.611, the relative viability ([2]; first compound 0.02 µM) was 0.533 and the relative viability ([2]; first compound 0.06325 µM) was 0.583. For the same cell line, the relative viability ([2]; first compound 0.2 µM) was 0.591, the relative viability ([2]; first compound 0.6325 µM) was 0.478 and the relative viability ([2]; first compound 2 µM) was 0.462. For the same cell line, the relative viability ([3]; first compound 0.253 µM) was 0.826, the relative viability ([3]; first compound 0.8 µM) was 0.795 and the relative viability ([3]; first compound 2.53 µM) was 0.734. It also gave a relative viability ([3]; first compound 8 µM) of 0.828, a relative viability ([4]; first compound 0.02 µM) of 1.13 and a relative viability ([4]; first compound 0.06325 µM) of 1.14. It also gave a relative viability ([4]; first compound 0.2 µM) of 1.14, a relative viability ([4]; first compound 0.6325 µM) of 1.08 and a relative viability ([4]; first compound 2 µM) of 1.03.
Cell Line NCI-H2347 has a relative viability ([1]; first compound 0.8 µM) of 0.343, a relative viability ([1]; first compound 2.53 µM) of 0.33 and a relative viability ([1]; first compound 8 µM) of 0.277. For the same cell line, the relative viability ([2]; first compound 0.02 µM) was 0.64, the relative viability ([2]; first compound 0.06325 µM) was 0.609 and the relative viability ([2]; first compound 0.2 µM) was 0.667. For the same cell line, the relative viability ([2]; first compound 0.6325 µM) was 0.444, the relative viability ([2]; first compound 2 µM) was 0.542 and the relative viability ([3]; first compound 0.8 µM) was 0.433. It also gave a relative viability ([3]; first compound 2.53 µM) of 0.421, a relative viability ([3]; first compound 8 µM) of 0.459 and a relative viability ([4]; first compound 0.02 µM) of 1.25. For the same cell line, the relative viability ([4]; first compound 0.06325 µM) was 1.36, the relative viability ([4]; first compound 0.2 µM) was 1.35 and the relative viability ([4]; first compound 0.6325 µM) was 1.05. For the same cell line, the relative viability ([4]; first compound 2 µM) was 0.694.
Work on NCI-H2405 yielded a relative viability ([1]; first compound 0.253 µM) of 0.199, a relative viability ([1]; first compound 0.8 µM) of 0.207 and a relative viability ([1]; first compound 2.53 µM) of 0.179. It also gave a relative viability ([1]; first compound 8 µM) of 0.181, a relative viability ([2]; first compound 0.02 µM) of 0.772 and a relative viability ([2]; first compound 0.06325 µM) of 0.733. The relative viability ([2]; first compound 0.2 µM) was 0.712, the relative viability ([2]; first compound 0.6325 µM) was 0.603 and the relative viability ([2]; first compound 2 µM) was 0.657. The relative viability ([3]; first compound 0.253 µM) was 0.558, the relative viability ([3]; first compound 0.8 µM) was 0.434 and the relative viability ([3]; first compound 2.53 µM) was 0.534. It also gave a relative viability ([3]; first compound 8 µM) of 0.612, a relative viability ([4]; first compound 0.02 µM) of 1.04 and a relative viability ([4]; first compound 0.06325 µM) of 0.949. For the same cell line, the relative viability ([4]; first compound 0.2 µM) was 1, the relative viability ([4]; first compound 0.6325 µM) was 0.937 and the relative viability ([4]; first compound 2 µM) was 0.883.
In the case of NCI-H3122, the relative viability ([1]; first compound 0.253 µM) is reported as 0.283, the relative viability ([1]; first compound 0.8 µM) is reported as 0.313 and the relative viability ([1]; first compound 2.53 µM) is reported as 0.28. It also gave a relative viability ([1]; first compound 8 µM) of 0.23, a relative viability ([2]; first compound 0.02 µM) of 0.497 and a relative viability ([2]; first compound 0.06325 µM) of 0.524. For the same cell line, the relative viability ([2]; first compound 0.2 µM) was 0.447, the relative viability ([2]; first compound 0.6325 µM) was 0.411 and the relative viability ([2]; first compound 2 µM) was 0.418. For the same cell line, the relative viability ([3]; first compound 0.253 µM) was 0.0576, the relative viability ([3]; first compound 0.8 µM) was 0.108 and the relative viability ([3]; first compound 2.53 µM) was 0.0895. It also gave a relative viability ([3]; first compound 8 µM) of 0.0702, a relative viability ([4]; first compound 0.02 µM) of 1.02 and a relative viability ([4]; first compound 0.06325 µM) of 1.03. For the same cell line, the relative viability ([4]; first compound 0.2 µM) was 1.1, the relative viability ([4]; first compound 0.6325 µM) was 1.05 and the relative viability ([4]; first compound 2 µM) was 1.02.

From the supplement of paper PMC10307832
